The values that follow come from US11377442B2, “Small molecule agonists and antagonists of NR2F6 activity” (ZANDER THERAPEUTICS, INC., priority 2016, dated 2022).

Structures are written as SMILES.

The target of this assay is T1, NR2F6 (Homo sapiens, UniProt P10588).
T1 construct: expressed in transfected cells; also transient transfection
T1 sequence (P10588 1-404): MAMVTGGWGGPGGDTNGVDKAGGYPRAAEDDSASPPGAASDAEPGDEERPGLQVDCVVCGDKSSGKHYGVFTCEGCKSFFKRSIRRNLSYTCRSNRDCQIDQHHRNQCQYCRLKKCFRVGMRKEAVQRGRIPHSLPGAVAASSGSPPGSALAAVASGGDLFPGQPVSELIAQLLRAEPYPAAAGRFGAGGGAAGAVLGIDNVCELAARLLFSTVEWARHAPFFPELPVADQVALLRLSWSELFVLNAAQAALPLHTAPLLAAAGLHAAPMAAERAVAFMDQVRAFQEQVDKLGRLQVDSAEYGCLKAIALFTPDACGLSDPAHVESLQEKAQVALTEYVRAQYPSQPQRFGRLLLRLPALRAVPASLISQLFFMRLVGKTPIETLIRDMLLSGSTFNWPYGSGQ
Put plainly: NR2F6 agonist screening, Firefly signal cmpd/DMSO. Type of assay: cell-based. The note with it: for Firefly/Renilla (NR2F6 stable, clone F4): ratio Firefly/Renilla; for Firefly, NR2F6 stable (clone F4)/pGL4: ratio of Firefly in NR2F6 stable clone F4 to pGL4.

Where [1] appears, read: C11 analogs follow set (Tables 2-10).

For the compound `O=C(Nc1ccccc1C(F)(F)F)c1ccc2oc(=O)c(S(=O)(=O)c3ccc(F)cc3)cc2c1` [Compound C120], under setting [1], the “Firefly, cmpd/DMSO repeat 1” value worked out at 4.5 and the “Firefly, cmpd/DMSO repeat 2” value was 6.3.
On to `COc1ccc(NC(=O)c2ccc3oc(=O)c(S(=O)(=O)c4ccc(C)cc4)cc3c2)cc1OC` [Compound C121], for which, under setting [1], the “Firefly, cmpd/DMSO repeat 1” value was 9.0 and the “Firefly, cmpd/DMSO repeat 2” value was 21.5.
Turning to `COc1ccc(NC(=O)c2ccc3oc(=O)c(S(=O)(=O)c4ccc(Cl)cc4)cc3c2)cc1OC` [Compound C122], under setting [1], the “Firefly, cmpd/DMSO repeat 1” value is listed as 4.4 and the “Firefly, cmpd/DMSO repeat 2” value amounted to 5.7.
As for `COc1ccccc1NC(=O)c1ccc2oc(=O)c(S(=O)(=O)c3ccccc3)cc2c1` [Compound C123], under setting [1], the “Firefly, cmpd/DMSO repeat 1” value is 17.7 and the “Firefly, cmpd/DMSO repeat 2” value is on record as 16.8.
As for `COc1ccccc1NC(=O)c1ccc2oc(=O)c(S(=O)(=O)c3ccc(F)cc3)cc2c1` [Compound C124], under setting [1], the “Firefly, cmpd/DMSO repeat 1” value was found to be 25.5 and the “Firefly, cmpd/DMSO repeat 2” value stood at 29.8.
The like results for `COc1ccccc1NC(=O)c1ccc2oc(=O)c(S(=O)(=O)c3ccc(Cl)cc3)cc2c1` [Compound C125] were, in that order, 28.0 and 24.5.
For `COc1cccc(NC(=O)c2ccc3oc(=O)c(S(=O)(=O)c4ccc(C)cc4)cc3c2)c1` [Compound C126], under setting [1], the “Firefly, cmpd/DMSO repeat 1” value is 45.1 and the “Firefly, cmpd/DMSO repeat 2” value is listed as 44.8. Besides, for the setting “Table 13”, the “Firefly/Renilla (NR2F6 stable, clone F4)” value came to 1.0; the “Firefly, NR2F6 stable (clone F4)/pGL4” value is given as 9.9; the “Firefly, cmpd/DMSO repeat 1” value is recorded as 45.1; the “Firefly, cmpd/DMSO repeat 2” value turned out to be 44.8.
Regarding `COc1cccc(NC(=O)c2ccc3oc(=O)c(S(=O)(=O)c4ccc(F)cc4)cc3c2)c1` [Compound C127], under setting [1], the “Firefly, cmpd/DMSO repeat 1” value is 36.7 and the “Firefly, cmpd/DMSO repeat 2” value stood at 56.2. In addition, where the note is “Table 13”, the “Firefly/Renilla (NR2F6 stable, clone F4)” value is reported as 1.1; the “Firefly, NR2F6 stable (clone F4)/pGL4” value stood at 5.7; the “Firefly, cmpd/DMSO repeat 1” value is reported as 36.7; the “Firefly, cmpd/DMSO repeat 2” value was 56.2.
In the case of `O=C(Nc1cccc(Cl)c1)c1ccc2oc(=O)c(S(=O)(=O)c3ccc(F)cc3)cc2c1` [Compound C128], under setting [1], the “Firefly, cmpd/DMSO repeat 1” value amounted to 1.7 and the “Firefly, cmpd/DMSO repeat 2” value is 5.2.
On to `O=C(Nc1ccc(Cl)cc1)c1ccc2oc(=O)c(S(=O)(=O)c3ccc(F)cc3)cc2c1` [Compound C129], for which, under setting [1], the “Firefly, cmpd/DMSO repeat 1” value came to 0.9 and the “Firefly, cmpd/DMSO repeat 2” value stood at 1.2.
`COc1cc(NC(=O)c2ccc3oc(=O)c(S(=O)(=O)c4ccccc4)cc3c2)cc(OC)c1` [Compound C130]: under setting [1], the “Firefly, cmpd/DMSO repeat 1” value was determined as 2.3 and the “Firefly, cmpd/DMSO repeat 2” value came to 3.4.
The like results for `COc1cc(NC(=O)c2ccc3oc(=O)c(S(=O)(=O)c4ccc(C)cc4)cc3c2)cc(OC)c1` [Compound C131] were, in that order, 9.5 and 15.3.
The like results for `COc1cc(NC(=O)c2ccc3oc(=O)c(S(=O)(=O)c4ccc(F)cc4)cc3c2)cc(OC)c1` [Compound C132] were, in that order, 1.4 and 1.4.
As for `COc1cc(NC(=O)c2ccc3oc(=O)c(S(=O)(=O)c4ccc(Cl)cc4)cc3c2)cc(OC)c1` [Compound C133], under setting [1], the “Firefly, cmpd/DMSO repeat 1” value is given as 2.1 and the “Firefly, cmpd/DMSO repeat 2” value stood at 4.3.
On to `Cc1ccc(S(=O)(=O)c2cc3cc(C(=O)Nc4cccc(C)c4C)ccc3oc2=O)cc1` [Compound C134], for which, under setting [1], the “Firefly, cmpd/DMSO repeat 1” value was determined as 38.1 and the “Firefly, cmpd/DMSO repeat 2” value is reported as 31.9. In addition, for the setting “Table 12”, the “Firefly/Renilla (NR2F6 stable, clone F4)” value worked out at 1.8; the “Firefly, NR2F6 stable (clone F4)/pGL4” value stood at 7.7; the “Firefly, cmpd/DMSO repeat 1” value turned out to be 38.1; the “Firefly, cmpd/DMSO repeat 2” value turned out to be 31.9.
Consider `Cc1cccc(NC(=O)c2ccc3oc(=O)c(S(=O)(=O)c4ccc(F)cc4)cc3c2)c1C` [Compound C135], for which, under setting [1], the “Firefly, cmpd/DMSO repeat 1” value stood at 5.6 and the “Firefly, cmpd/DMSO repeat 2” value turned out to be 4.9.
For `Cc1cccc(NC(=O)c2ccc3oc(=O)c(S(=O)(=O)c4ccc(Cl)cc4)cc3c2)c1C` [Compound C136], under setting [1], the “Firefly, cmpd/DMSO repeat 1” value is 22.1 and the “Firefly, cmpd/DMSO repeat 2” value is recorded as 25.8. Moreover, for the setting “Table 12”, the “Firefly/Renilla (NR2F6 stable, clone F4)” value is listed as 1.7; the “Firefly, NR2F6 stable (clone F4)/pGL4” value was 8.1; the “Firefly, cmpd/DMSO repeat 1” value was 22.1; the “Firefly, cmpd/DMSO repeat 2” value was 25.8.
With `O=c1oc2ccc([N+](=O)[O-])cc2cc1S(=O)(=O)c1ccc(F)cc1` [Compound C137], under setting [1], the “Firefly, cmpd/DMSO repeat 1” value is on record as 22.6 and the “Firefly, cmpd/DMSO repeat 2” value is given as 23.4. Also, for the setting “Table 13”, the “Firefly/Renilla (NR2F6 stable, clone F4)” value was 1.4; the “Firefly, NR2F6 stable (clone F4)/pGL4” value is reported as 8.4; the “Firefly, cmpd/DMSO repeat 1” value turned out to be 22.6; the “Firefly, cmpd/DMSO repeat 2” value stood at 23.4.
In the case of `O=c1oc2ccc([N+](=O)[O-])cc2cc1S(=O)(=O)c1ccc(Br)cc1` [Compound C138], under setting [1], the “Firefly, cmpd/DMSO repeat 1” value is 10.0 and the “Firefly, cmpd/DMSO repeat 2” value is 16.6.
Turning to `CC(C)(C)c1ccc(S(=O)(=O)c2cc3cc([N+](=O)[O-])ccc3oc2=O)cc1` [Compound C139], under setting [1], the “Firefly, cmpd/DMSO repeat 1” value is given as 6.6 and the “Firefly, cmpd/DMSO repeat 2” value is given as 6.4.
Take `CC(C)c1ccc(S(=O)(=O)c2cc3cc(Cl)ccc3oc2=O)cc1` [Compound C140]: under setting [1], the “Firefly, cmpd/DMSO repeat 1” value is on record as 12.8 and the “Firefly, cmpd/DMSO repeat 2” value came out at 12.0.
Take `Cc1ccc(S(=O)(=O)c2cc3cc(Cl)ccc3oc2=O)cc1C` [Compound C143]: under setting [1], the “Firefly, cmpd/DMSO repeat 1” value stood at 15.2 and the “Firefly, cmpd/DMSO repeat 2” value worked out at 14.5.
With `COc1ccc2oc(=O)c(S(=O)(=O)c3ccc(C)c(C)c3)cc2c1` [Compound C144], under setting [1], the “Firefly, cmpd/DMSO repeat 1” value is 0.9 and the “Firefly, cmpd/DMSO repeat 2” value is reported as 0.8.
The like results for `O=c1oc2ccc(Cl)cc2cc1S(=O)(=O)c1ccc(Cl)cc1` [Compound C147] were, in that order, 2.6 and 2.9.
`O=c1oc2ccc(Cl)cc2cc1S(=O)(=O)c1ccc(Cl)c(Cl)c1` [Compound C151]: under setting [1], the “Firefly, cmpd/DMSO repeat 1” value stood at 3.6 and the “Firefly, cmpd/DMSO repeat 2” value was 5.5.
As for `O=c1oc2ccc([N+](=O)[O-])cc2cc1S(=O)(=O)c1ccc(Cl)c(Cl)c1` [Compound C153], under setting [1], the “Firefly, cmpd/DMSO repeat 1” value was determined as 6.5 and the “Firefly, cmpd/DMSO repeat 2” value amounted to 9.0.
Consider `COc1ccc(S(=O)(=O)c2cc3cc(Br)ccc3oc2=O)cc1OC` [Compound C154], for which, under setting [1], the “Firefly, cmpd/DMSO repeat 1” value came out at 35.4 and the “Firefly, cmpd/DMSO repeat 2” value is reported as 35.4. Also, for the setting “Table 13”, the “Firefly/Renilla (NR2F6 stable, clone F4)” value turned out to be 1.6; the “Firefly, NR2F6 stable (clone F4)/pGL4” value turned out to be 9.1; the “Firefly, cmpd/DMSO repeat 1” value is listed as 35.4; the “Firefly, cmpd/DMSO repeat 2” value amounted to 35.4.
As to `COc1ccc(S(=O)(=O)c2cc3cc(Cl)ccc3oc2=O)cc1OC` [Compound C155], under setting [1], the “Firefly, cmpd/DMSO repeat 1” value is 37.3 and the “Firefly, cmpd/DMSO repeat 2” value was 33.3. Moreover, for the setting “Table 12”, the “Firefly/Renilla (NR2F6 stable, clone F4)” value turned out to be 2.0; the “Firefly, NR2F6 stable (clone F4)/pGL4” value is on record as 10.9; the “Firefly, cmpd/DMSO repeat 1” value is listed as 37.3; the “Firefly, cmpd/DMSO repeat 2” value came to 33.3.
